In PMC11602115 (Journal of Medicinal Chemistry, 2017):
Like-named read-outs stand apart in the source and are kept apart here.

Assays:
human platelet = experiment: Inhibition of ADP-induced human platelet aggregation; format: cell-based; details: aggregation induced by 2.5 μM ADP, mean of at least two determinations
Protocol: Such aggregated and activated platelets produce vasoactive substances such as thromboxane and serotonin that may cause harmful vasoconstriction and vascular remodeling.[13] […] This secondary assay was carried out as previously described,[14] with aggregation induced by 2.5 μM ADP in the presence or absence of IP receptor agonists.

IP = IP (Homo sapiens, UniProt P43119); experiment: HTRF cAMP assay, recombinant human IP receptor stably expressed in CHO-K1 cells; format: cell-based; set-up: expressed in transfected cells
Protocol: (§1) The new compounds were tested for functional agonist activity in a standard (Cisbio) cAMP assay using recombinant IP or DP1 receptors stably expressed in CHO-K1 cells. Clonal cell lines were derived following standard protocols, but receptor expression levels were kept to a minimum to preclude receptor reserve effects.
(§2) For development of cAMP accumulation assays, recombinant IP or DP1 receptors were stably expressed in CHO-K1 cells and clonal cell lines derived following standard protocols. Receptor expression levels were minimized to preclude receptor reserve effects. HTRF cAMP assays were performed according to the manufacturer’s instructions (Cisbio, cAMP Dynamic 2 assay kit; no. 62AM4PEJ). IP receptor-expressing cells were harvested, resuspended in assay buffer (PBS containing 1 mM IBMX and 0.2% BSA) at a density of 200 000 cells per mL, and dispensed into 384-well assay plates (PerkinElmer Proxiplate no. 6008280) at 5 μL per well. Test compounds were solubilized and serially diluted in DMSO using 5-fold dilutions to generate a 10-point dose–response curve with a top concentration of 10 μM. The samples were then further diluted in PBS to achieve a 2× stock. Diluted compounds were then transferred to a triplicate set of assay plates (5 μL per well). After a 1 h incubation at room temperature, 5 μL of cAMP-D2 reagent diluted in lysis buffer was added to each well followed by 5 μL of cryptate reagent. Plates were then incubated at room temperature for 1 h prior to reading. Time-resolved fluorescence measurements were collected on PerkinElmer Envision or BMG Pherastar microplate readers.

rat IP = rat IP (Rattus norvegicus, UniProt P43253); experiment: HTRF cAMP assay, recombinant rat IP receptor; format: cell-based; set-up: expressed in transfected cells; details: for EC50: HTRF (cAMP) rat IP receptor assay, mean of at least three determinations; for Emax: read-out: rIP % IA
Protocol: as §1, §2

human DP1 receptor = molecular target: T1, human DP1 receptor (Homo sapiens, UniProt Q13258); experiment: HTRF cAMP assay, recombinant human DP1 receptor in CHO-K1 cells; format: cell-based; details: for Emax: CHO-K1, intrinsic activity relative to 1 μM PGD2, read-out: hDP1 % IA; for EC50: HTRF (cAMP) human DP1 receptor assay, mean of at least three determinations, read-out: EC50 hDP1
T1 construct: expressed in transfected cells
T1 sequence (Q13258 1-359): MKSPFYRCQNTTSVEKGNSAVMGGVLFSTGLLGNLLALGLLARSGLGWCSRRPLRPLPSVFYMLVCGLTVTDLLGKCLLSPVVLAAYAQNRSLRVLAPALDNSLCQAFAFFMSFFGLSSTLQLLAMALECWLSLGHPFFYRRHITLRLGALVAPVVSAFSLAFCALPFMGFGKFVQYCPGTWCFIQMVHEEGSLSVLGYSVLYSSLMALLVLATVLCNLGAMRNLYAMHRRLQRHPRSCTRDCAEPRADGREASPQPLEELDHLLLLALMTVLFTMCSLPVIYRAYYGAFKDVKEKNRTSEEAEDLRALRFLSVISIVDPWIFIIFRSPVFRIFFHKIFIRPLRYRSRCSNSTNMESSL
Protocol: as §1, §2

[1] = Stability in rat microsome preparations; format: in vitro ADME; details: incubation at 37 °C, rat microsomes; read-out: rat MS, T1/2
Text: (§3) Table 1 Screening Data for Selected Analogues ^a | column: human and rat MS, T1/2 (min) ^g

Rat PK (iv and oral) = format: in vivo; details: for AUC(0-inf) / bioavailability: Sprague-Dawley, plasma; for AUC(0-inf): after oral administration 10 mg/kg (5m 10.5); for bioavailability: po, 10 mg/kg; for Cmax / Tmax: po 10 mg/kg (5m 10.5); for T1/2: terminal half-life after iv 2 mg/kg (5m 2.1); for Clobs: total clearance, iv 2 mg/kg (5m 2.1)
[2] = Stability in human microsome preparations; format: in vitro ADME; details: incubation at 37 °C, human microsomes; read-out: human MS, T1/2
Text: as §3

[3] = HTRF (cAMP) human IP receptor assay; mean of at least three determinations

Sequence of rat IP (P43253 whole entry): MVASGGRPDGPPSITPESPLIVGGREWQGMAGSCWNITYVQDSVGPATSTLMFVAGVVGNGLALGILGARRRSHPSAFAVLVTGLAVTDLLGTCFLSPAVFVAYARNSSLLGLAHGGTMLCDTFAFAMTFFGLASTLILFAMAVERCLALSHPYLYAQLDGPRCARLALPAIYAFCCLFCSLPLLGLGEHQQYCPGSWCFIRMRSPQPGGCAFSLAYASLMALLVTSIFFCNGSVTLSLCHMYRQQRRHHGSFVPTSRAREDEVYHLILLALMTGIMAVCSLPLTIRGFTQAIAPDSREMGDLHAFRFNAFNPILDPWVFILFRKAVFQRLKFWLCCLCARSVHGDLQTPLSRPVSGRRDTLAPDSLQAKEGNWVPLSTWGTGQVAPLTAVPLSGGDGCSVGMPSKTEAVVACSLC
Sequence of IP (P43119 whole entry): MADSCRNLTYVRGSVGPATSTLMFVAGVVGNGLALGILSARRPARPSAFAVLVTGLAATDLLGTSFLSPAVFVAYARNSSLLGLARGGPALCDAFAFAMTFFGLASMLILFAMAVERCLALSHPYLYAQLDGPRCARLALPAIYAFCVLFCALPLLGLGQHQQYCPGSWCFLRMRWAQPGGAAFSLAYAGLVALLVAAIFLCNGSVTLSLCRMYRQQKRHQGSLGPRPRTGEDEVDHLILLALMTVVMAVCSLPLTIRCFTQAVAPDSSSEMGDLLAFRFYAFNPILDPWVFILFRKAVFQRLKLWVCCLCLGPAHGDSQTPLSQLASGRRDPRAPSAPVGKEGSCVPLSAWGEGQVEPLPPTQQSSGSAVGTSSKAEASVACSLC

| IC50 (human platelet) [nM] | Emax (IP; CHO-K1; read-out: hIP % IA) [%] | EC50 (IP; [3]) [nM] | EC50 (rat IP) [nM] | Emax (rat IP) [%] | Emax (human DP1 receptor) [%] | EC50 (human DP1 receptor) [nM] | half-life [1] [min] | AUC(0-inf) (Rat PK (iv and oral)) [ng·h/mL] | bioavailability (Rat PK (iv and oral)) [%] | Cmax (Rat PK (iv and oral)) [µg/mL] | Tmax (Rat PK (iv and oral)) [min] | T1/2 (Rat PK (iv and oral)) [h] | Clobs (Rat PK (iv and oral)) [L h^–1 kg^–1] | half-life [2] [min] | SMILES | Emax (IP; CHO-K1, read-out: hIP % IA) [%] |
| --- | --- | --- | --- | --- | --- | --- | --- | --- | --- | --- | --- | --- | --- | --- | --- | --- |
| 12 | 89 | 6.6 | 535 | 91 | 55 | 620 | > 60 | 7900 | 100 | 1.2 | 18 | 3.9 | 1.8 | > 60 | O=C(O)COC[C@H]1CC[C@H](COC(=O)N(c2ccccc2)c2ccc(F)cc2)CC1 [5l, 2-(((1r,4r)-4-(((4-Fluorophenyl)(phenyl)carbamoyloxy)methyl)cyclohexyl)methoxy)acetic Acid] |  |
| 142 | 79 | 38 | 1330 | 102 |  | > 10000 | > 60 |  |  |  |  |  |  | > 60 | O=C(O)COC[C@H]1CC[C@H](COC(=O)N(c2ccccc2)c2ccc(F)c(Cl)c2)CC1 [5n, 2-(((1r,4r)-4-(((3-Chloro-4-fluorophenyl)(phenyl)carbamoyloxy)methyl)cyclohexyl)methoxy)acetic Acid] |  |
| 43 | 70 | 5.2 | 1570 | 60 | 65 | 1030 |  |  |  |  |  |  |  |  | COc1ccc(N(C(=O)OC[C@H]2CC[C@H](COCC(=O)O)CC2)c2cccc(F)c2)cc1 [5p, 2-(((1r,4r)-4-(((3-Fluorophenyl)(4-methoxyphenyl)carbamoyloxy)methyl)cyclohexyl)methoxy)acetic Acid] |  |
|  | 70 | 18.5 | 3190 | 44 | 35 | 1140 | > 60 |  |  |  |  |  |  | > 60 | O=C(O)COC[C@H]1CC[C@H](COC(=O)N(c2ccc(Cl)cc2)c2cccc(F)c2)CC1 [5q, 2-(((1r,4r)-4-(((4-Chlorophenyl)(3-fluorophenyl)carbamoyloxy)methyl)cyclohexyl)methoxy)acetic Acid] |  |
|  | 65 | 41 | > 10000 |  | 45 | 860 |  |  |  |  |  |  |  |  | O=C(O)COC[C@H]1CC[C@H](COC(=O)N(c2ccc(F)cc2)c2ccc(F)cc2)CC1 [5r, 2-(((1r,4r)-4-((Bis(4-fluorophenyl)carbamoyloxy)methyl)cyclohexyl)methoxy)acetic Acid] |  |
| 30 | 76 | 7.8 | 1630 | 54 | 57 | 808 | > 60 |  |  |  |  |  |  | > 60 | O=C(O)COC[C@H]1CC[C@H](COC(=O)N(c2ccc(F)cc2)c2cccc(F)c2)CC1 [5s, 2-(((1r,4r)-4-(((4-Fluorophenyl)(3-fluorophenyl)carbamoyloxy)methyl)cyclohexyl)methoxy)acetic Acid] |  |
|  | 75 | 23 | 2720 | 56 |  | > 10000 | > 60 |  |  |  |  |  |  | > 60 | O=C(O)COC[C@H]1CC[C@H](COC(=O)N(c2cccc(F)c2)c2ccc(Cl)c(F)c2)CC1 [5t, 2-(((1r,4r)-4-(((4-Chloro-3-fluorophenyl)(3-fluorophenyl)carbamoyloxy)methyl)cyclohexyl)methoxy)acetic Acid] |  |
|  | 93 | 25 |  |  |  |  |  |  |  |  |  |  |  |  | O=C(O)COC[C@H]1CC[C@H](COC(=O)N(c2ccc(O)cc2)c2ccc(Cl)cc2)CC1 [M2] |  |
|  | 78 | 1050 |  |  |  |  |  |  |  |  |  |  |  |  | O=C(COC[C@H]1CC[C@H](COC(=O)N(c2ccc(O)cc2)c2ccc(Cl)cc2)CC1)NCCS(=O)(=O)O [M3] |  |
| 62 | 98 |  |  | 100 | 48 |  | > 60 |  |  |  |  |  |  | > 60 | CC(C)N(CCCCOCC(=O)NS(C)(=O)=O)c1cnc(-c2ccccc2)c(-c2ccccc2)n1 [compound 1, selexipag, reference compound] |  |

Continued, molecule first:

| SMILES | IC50 (human platelet) [nM] | Emax (IP; CHO-K1; read-out: hIP % IA) [%] | EC50 (IP; [3]) [nM] | EC50 (rat IP) [nM] | Emax (rat IP) [%] | Emax (human DP1 receptor) [%] | EC50 (human DP1 receptor) [nM] | half-life [1] [min] | AUC(0-inf) (Rat PK (iv and oral)) [ng·h/mL] | bioavailability (Rat PK (iv and oral)) [%] | Cmax (Rat PK (iv and oral)) [µg/mL] | Tmax (Rat PK (iv and oral)) [min] | T1/2 (Rat PK (iv and oral)) [h] | Clobs (Rat PK (iv and oral)) [L h^–1 kg^–1] | half-life [2] [min] | Emax (IP; CHO-K1, read-out: hIP % IA) [%] |
| --- | --- | --- | --- | --- | --- | --- | --- | --- | --- | --- | --- | --- | --- | --- | --- | --- |
| O=C(O)COC[C@H]1CC[C@@H](COC(=O)N(c2ccccc2)c2ccccc2)CC1 [5b, 2-(((1s,4s)-4-((Diphenylcarbamoyloxy)methyl)cyclohexyl)methoxy)acetic Acid] | 54 | 81 | 54 | 472 | 94 | 68 | 1710 |  |  |  |  |  |  |  |  |  |
| O=C(O)COC[C@H]1CC[C@@H](COC(=O)N(c2ccccc2)c2ccc(Cl)cc2)CC1 [5d, 2-(((1s,4s)-4-(((4-Chlorophenyl)(phenyl)carbamoyloxy)methyl)cyclohexyl)methoxy)acetic Acid] |  |  |  | 560 | 88 | 60 | 980 |  |  |  |  |  |  |  |  | 80 |
| COc1ccc(N(C(=O)OC[C@H]2CC[C@H](COCC(=O)O)CC2)c2ccccc2)cc1 [5e, 2-(((1r,4r)-4-(((4-Methoxyphenyl)(phenyl)carbamoyloxy)methyl)cyclohexyl)methoxy)acetic Acid] | 22 | 83 | 3.3 | 165 | 91 | 74 | 240 | > 60 | 3400 | 100 | 0.95 | 18 | 0.3 | 3.4 | > 60 |  |
| COc1ccc(N(C(=O)OC[C@H]2CC[C@@H](COCC(=O)O)CC2)c2ccccc2)cc1 [5f, 2-(((1s,4s)-4-(((4-Methoxyphenyl)(phenyl)carbamoyloxy)methyl)cyclohexyl)methoxy)acetic Acid] |  | 16 | 1630 | > 10000 |  |  |  |  |  |  |  |  |  |  |  |  |
| O=C(O)COC[C@H]1CC[C@@H](COC(=O)N(c2ccccc2)c2cccc(F)c2)CC1 [5h, 2-(((1s,4s)-4-(((3-Fluorophenyl)(phenyl)carbamoyloxy)methyl)cyclohexyl)methoxy)acetic Acid] | 93 | 79 | 62 | 561 | 88 | 61 | 3870 |  |  |  |  |  |  |  |  |  |
| O=C(O)COC[C@H]1CC[C@H](COC(=O)N(c2ccccc2)c2cccc(Cl)c2)CC1 [5i, 2-(((1r,4r)-4-(((3-Chlorophenyl)(phenyl)carbamoyloxy)methyl)cyclohexyl)methoxy)acetic Acid] |  | 80 |  | 272 | 88 | 30 | 5070 | > 60 |  |  |  |  |  |  | > 60 |  |
| COc1cccc(N(C(=O)OC[C@H]2CC[C@H](COCC(=O)O)CC2)c2ccccc2)c1 [5j, 2-(((1r,4r)-4-(((3-Methoxyphenyl)(phenyl)carbamoyloxy)methyl)cyclohexyl)methoxy)acetic Acid] | 23 | 92 | 12 | 470 | 94 | 68 | 1720 | 53 | 1900 | 86 | 0.9 | 18 | 3.3 | 5.1 | > 60 |  |
| Cc1ccc(N(C(=O)OC[C@H]2CC[C@H](COCC(=O)O)CC2)c2ccccc2)cc1 [5k, 2-(((1r,4r)-4-((Phenyl(p-tolyl)carbamoyloxy)methyl)cyclohexyl)methoxy)acetic Acid] | 39 | 81 | 3.9 | 174 | 99 | 53 | 320 |  |  |  |  |  |  |  |  |  |
